Assay results as given in PubChem BioAssay (NCI).
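A five-concentration, 48-hour dose response in 96-well plates underlies each endpoint, interpolated linearly between surrounding concentrations. Here, GI50 denotes the concentration required for 50% inhibition of growth. TGI denotes the concentration required for complete inhibition of growth.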

Legend:
Assay in all cases: NCI-60 cell line screen, 48 h
[1] = tested on: HL-60(TB) leukemia
[2] = tested on: SW-620 colon
[3] = tested on: OVCAR-3 ovarian
[4] = tested on: SNB-75 CNS
[5] = tested on: SK-OV-3 ovarian
[6] = tested on: SK-MEL-5 melanoma
[7] = tested on: NCI-H226 lung
[8] = tested on: SK-MEL-28 melanoma
[9] = tested on: SF-539 CNS
[10] = tested on: NCI-H522 lung

Cc1cc2nc3c(=O)n(C)c(=O)nc-3n(-c3ccc(Cl)cc3)c2cc1C showed a TGI [1] of 24.3 µM, a TGI [2] of 20.5 µM and a TGI [3] of 8.81 µM. It also gave a TGI [4] of 24.4 µM, a TGI [5] of 67.4 µM and a TGI [6] of 4.14 µM. The TGI [7] was 37.6 µM, the TGI [8] was 33.4 µM and the TGI [9] was 25.4 µM.
O=C1C=C(c2c(O)ccc3ccccc23)c2ccccc2C1=O showed a TGI [1] of 15.3 µM, a TGI [2] of 5.21 µM and a TGI [3] of 6.02 µM. It also gave a TGI [4] of 12.9 µM, a TGI [5] of 23.9 µM and a TGI [6] of 7.42 µM. The TGI [7] was 27.9 µM, the TGI [8] was greater than 50 µM and the TGI [9] was 4.36 µM.
Compound COc1ccc2c(c1)C(=O)CC(N)C2 (centres undefined) has a TGI [1] greater than 100 µM, a TGI [2] greater than 100 µM and a TGI [3] greater than 100 µM. For the same compound, the TGI [4] was greater than 100 µM, the TGI [5] was greater than 100 µM and the TGI [6] was greater than 100 µM. For the same compound, the TGI [10] was greater than 100 µM, the TGI [7] was greater than 100 µM and the TGI [8] was greater than 100 µM.
With CCN(CC)c1ccc(N=Nc2ccc(-c3nc4cccnc4o3)cc2)cc1 the TGI [1] was greater than 100 µM, the TGI [2] was greater than 100 µM and the TGI [3] was greater than 100 µM. The TGI [4] was greater than 100 µM, the TGI [6] was greater than 100 µM and the TGI [10] was greater than 100 µM. The TGI [7] was greater than 100 µM, the TGI [8] was greater than 100 µM and the TGI [9] was greater than 100 µM.
COc1ccc(/C=C/c2cc(OC)c(OC)c(OC)c2)cc1NC(=O)/C=C/c1ccc(F)cc1 showed a GI50 [1] of 1.8 µM, a TGI [1] of 7.47 µM and a GI50 [2] of 2.85 µM. For the same compound, the TGI [2] was greater than 100 µM, the GI50 [3] was 2.43 µM and the TGI [3] was 6.23 µM. For the same compound, the GI50 [5] was 0.0441 µM, the TGI [5] was 0.782 µM and the GI50 [6] was 2.72 µM. The TGI [6] was greater than 100 µM, the GI50 [10] was 1.87 µM and the TGI [10] was 5.73 µM. It also gave a GI50 [7] of 3.82 µM, a TGI [7] of 89 µM and a GI50 [8] of 5.04 µM. It also gave a TGI [8] greater than 100 µM, a GI50 [9] of 2.88 µM and a TGI [9] of 7.86 µM.
In the case of Cc1c(CCCl)c(=O)n2c([nH]c3ccccc32)c1C#N, the TGI [1] is reported as greater than 10 µM, the TGI [2] is reported as 2.27 µM and the TGI [3] is reported as 3.67 µM. For the same compound, the TGI [4] was 2.78 µM, the TGI [5] was 3.84 µM and the TGI [6] was 2.8 µM. For the same compound, the TGI [7] was 4.84 µM, the TGI [8] was 3.72 µM and the TGI [9] was 2.79 µM.
With S=C(Nc1ccc(-c2nc3ccccc3[nH]2)cc1)NC1CCCCC1 the GI50 [1] was 46.9 µM, the GI50 [2] was 31.6 µM and the TGI [3] was 43.8 µM. The GI50 [4] was 25.1 µM, the TGI [4] was greater than 100 µM and the GI50 [10] was 12.9 µM. The TGI [10] was 35.3 µM, the GI50 [7] was 19.6 µM and the TGI [7] was 48.9 µM. The GI50 [8] was 30.6 µM, the GI50 [9] was 22.6 µM and the TGI [9] was 48.5 µM.
CCCC(=O)c1c(NOC2OC(COC(C)=O)C(OC(C)=O)C(OC(C)=O)C2OC(C)=O)nc(OC)n(C)c1=O (centres undefined) gave a TGI [2] greater than 100 µM, a TGI [4] greater than 100 µM and a TGI [6] greater than 100 µM. For the same compound, the TGI [10] was greater than 100 µM, the TGI [7] was greater than 100 µM and the TGI [8] was greater than 100 µM. It also gave a TGI [9] greater than 100 µM.
In the case of Cc1nc2ccc(C(F)(F)F)cc2nc1Nc1ccc(Cl)c(Cl)c1, the TGI [1] is reported as 24 µM, the TGI [2] is reported as 28.3 µM and the TGI [3] is reported as 26.9 µM. The TGI [5] was 36 µM, the TGI [7] was 39.1 µM and the TGI [8] was 24.7 µM. It also gave a TGI [9] of 27.5 µM.
For N#CC(C#N)=C(N)/C(C#N)=C\c1ccnc2ccccc12, the TGI [1] was 4.69 µM, the TGI [2] was 17.2 µM and the TGI [3] was greater than 100 µM. It also gave a TGI [4] of 70.7 µM, a TGI [6] of 34 µM and a TGI [10] of 89.1 µM. The TGI [8] was 40.2 µM and the TGI [9] was 31.1 µM.
With C=CCn1c(C)nc2cc(Nc3nc(Nc4ccc5nc(C)n(CC=C)c5c4)c4ccccc4n3)ccc21 the GI50 [1] was 1.7 µM, the TGI [1] was 4.13 µM and the GI50 [3] was 0.183 µM. It also gave a TGI [3] of 0.342 µM, a GI50 [4] of 0.745 µM and a TGI [4] of 2.3 µM. The GI50 [6] was 1.36 µM, the TGI [6] was 2.64 µM and the GI50 [10] was 1.43 µM. For the same compound, the TGI [10] was 3.27 µM, the GI50 [7] was 2.02 µM and the TGI [7] was 4.77 µM. For the same compound, the GI50 [8] was 1.41 µM, the TGI [8] was 3.16 µM and the GI50 [9] was 1.03 µM. The TGI [9] was 2.22 µM.
CC1(C)C(=O)N(c2ccccc2)C(=O)N1c1nc2ccccc2[nH]1 was tested, and the TGI [1] was greater than 100 µM, the TGI [2] was 36.3 µM and the TGI [3] was greater than 100 µM. For the same compound, the TGI [4] was greater than 100 µM, the TGI [5] was greater than 100 µM and the TGI [6] was greater than 100 µM. It also gave a TGI [10] greater than 100 µM, a TGI [7] greater than 100 µM and a TGI [8] greater than 100 µM.
For C=CCc1cc2cccc(OC)c2oc1=O, the TGI [1] was greater than 100 µM, the TGI [2] was greater than 100 µM and the TGI [3] was greater than 100 µM. It also gave a TGI [4] greater than 100 µM, a TGI [6] greater than 100 µM and a TGI [10] greater than 100 µM. For the same compound, the TGI [7] was greater than 100 µM, the TGI [8] was greater than 100 µM and the TGI [9] was greater than 100 µM.
CCN(CC)CCC1CC/C(=C\c2ccc(OC)cc2)C1=O (centres undefined) showed a TGI [1] greater than 100 µM, a TGI [2] greater than 100 µM and a TGI [3] greater than 100 µM. The TGI [4] was greater than 100 µM, the TGI [6] was 44 µM and the TGI [10] was greater than 100 µM. It also gave a TGI [7] greater than 100 µM, a TGI [8] greater than 100 µM and a TGI [9] greater than 100 µM.
With O=C(Nc1ccccc1)c1ccc(Cl)c([N+](=O)[O-])c1 the TGI [2] was 34 µM, the TGI [3] was 43.5 µM and the TGI [4] was 71.6 µM. It also gave a TGI [5] of 65 µM, a TGI [6] of 20 µM and a TGI [10] of 32 µM. For the same compound, the TGI [7] was 68.4 µM, the TGI [8] was 61.4 µM and the TGI [9] was 60.5 µM.
For COc1ccc(NC(=O)C2C(=O)N(c3ccc(OC)cc3)C(=O)/C2=N/O)cc1 (centres undefined), the TGI [1] was greater than 100 µM, the TGI [2] was greater than 100 µM and the TGI [3] was greater than 59.9 µM. It also gave a TGI [4] greater than 73.7 µM, a TGI [5] of 39 µM and a TGI [10] of 53.4 µM. The TGI [7] was 55.7 µM, the TGI [8] was greater than 96.8 µM and the TGI [9] was 36.7 µM.
In the case of COc1cc(-c2nc3ccc(C)cc3[nH]2)ccc1OCC(=O)N=Nc1c(O)[nH]c2ccccc12, the GI50 [2] is reported as 0.769 µM, the TGI [2] is reported as 2.37 µM and the GI50 [3] is reported as 1.71 µM. The TGI [3] was 3.21 µM, the GI50 [4] was 1.07 µM and the TGI [4] was 2.91 µM. The GI50 [6] was 1.82 µM, the TGI [6] was 3.52 µM and the GI50 [8] was 1.77 µM. The TGI [8] was 3.16 µM, the GI50 [9] was 1.62 µM and the TGI [9] was 3.01 µM.
Compound C[CH2][Sn]1([CH2]C)[O]C(=O)[O][Sn]([CH2]C)([CH2]C)[O]1 has a GI50 [1] of 26.4 µM, a TGI [1] of 81.7 µM and a GI50 [2] of 15.2 µM. It also gave a TGI [2] of 29.2 µM, a GI50 [3] of 23.5 µM and a TGI [3] greater than 61.8 µM. For the same compound, the GI50 [4] was greater than 63.8 µM, the TGI [4] was greater than 86.7 µM and the GI50 [5] was greater than 100 µM. It also gave a TGI [5] greater than 100 µM, a GI50 [6] of 21.1 µM and a TGI [6] of 40.8 µM. It also gave a GI50 [7] greater than 43.8 µM, a TGI [7] greater than 58.4 µM and a GI50 [8] of 13 µM. The TGI [8] was 25.8 µM, the GI50 [9] was 19.7 µM and the TGI [9] was 38.5 µM.
CC(=O)NC(CCCCNC(=O)OCc1ccccc1)C(=O)NCc1ccccc1 (centres undefined) was tested, and the TGI [2] was greater than 100 µM, the TGI [3] was greater than 100 µM and the TGI [4] was greater than 100 µM. The TGI [5] was greater than 100 µM, the TGI [6] was greater than 100 µM and the TGI [10] was greater than 100 µM. It also gave a TGI [7] greater than 100 µM, a TGI [8] greater than 100 µM and a TGI [9] greater than 100 µM.
For Cc1nc(N)sc1C(=O)/C=C/c1ccc(/C=C/C(=O)c2sc(NC(=O)CCCCCCCCC(=O)Nc3nc(C)c(C(=O)/C=C/c4ccc(/C=C/C(=O)c5sc(N)nc5C)cc4)s3)nc2C)cc1, the TGI [1] was greater than 100 µM, the TGI [2] was greater than 100 µM and the TGI [3] was greater than 100 µM. It also gave a TGI [5] greater than 100 µM, a TGI [10] greater than 100 µM and a TGI [8] greater than 100 µM. For the same compound, the TGI [9] was greater than 100 µM.
